ChEMBL document CHEMBL4270481, “ALK5 kinase inhibitory activity and synthesis of 2,3,4-substituted 5,5-dimethyl-5,6-dihydro-4H-pyrrolo[1,2-b]pyrazoles” (Eur J Med Chem, 2017)

Key:
[1] = target: Serine/threonine-protein kinase pim-1 (Homo sapiens) (UniProt P11309); test: Inhibition of PIM1 (unknown origin) assessed as residual enzyme activity at 1 uM relative to untreated control
[2] = target: Tyrosine-protein kinase JAK2 (Homo sapiens) (UniProt O60674); test: Inhibition of JAK2 (unknown origin) assessed as residual enzyme activity at 1 uM relative to untreated control
Sequence of Tyrosine-protein kinase JAK2 (Homo sapiens) (O60674 whole entry): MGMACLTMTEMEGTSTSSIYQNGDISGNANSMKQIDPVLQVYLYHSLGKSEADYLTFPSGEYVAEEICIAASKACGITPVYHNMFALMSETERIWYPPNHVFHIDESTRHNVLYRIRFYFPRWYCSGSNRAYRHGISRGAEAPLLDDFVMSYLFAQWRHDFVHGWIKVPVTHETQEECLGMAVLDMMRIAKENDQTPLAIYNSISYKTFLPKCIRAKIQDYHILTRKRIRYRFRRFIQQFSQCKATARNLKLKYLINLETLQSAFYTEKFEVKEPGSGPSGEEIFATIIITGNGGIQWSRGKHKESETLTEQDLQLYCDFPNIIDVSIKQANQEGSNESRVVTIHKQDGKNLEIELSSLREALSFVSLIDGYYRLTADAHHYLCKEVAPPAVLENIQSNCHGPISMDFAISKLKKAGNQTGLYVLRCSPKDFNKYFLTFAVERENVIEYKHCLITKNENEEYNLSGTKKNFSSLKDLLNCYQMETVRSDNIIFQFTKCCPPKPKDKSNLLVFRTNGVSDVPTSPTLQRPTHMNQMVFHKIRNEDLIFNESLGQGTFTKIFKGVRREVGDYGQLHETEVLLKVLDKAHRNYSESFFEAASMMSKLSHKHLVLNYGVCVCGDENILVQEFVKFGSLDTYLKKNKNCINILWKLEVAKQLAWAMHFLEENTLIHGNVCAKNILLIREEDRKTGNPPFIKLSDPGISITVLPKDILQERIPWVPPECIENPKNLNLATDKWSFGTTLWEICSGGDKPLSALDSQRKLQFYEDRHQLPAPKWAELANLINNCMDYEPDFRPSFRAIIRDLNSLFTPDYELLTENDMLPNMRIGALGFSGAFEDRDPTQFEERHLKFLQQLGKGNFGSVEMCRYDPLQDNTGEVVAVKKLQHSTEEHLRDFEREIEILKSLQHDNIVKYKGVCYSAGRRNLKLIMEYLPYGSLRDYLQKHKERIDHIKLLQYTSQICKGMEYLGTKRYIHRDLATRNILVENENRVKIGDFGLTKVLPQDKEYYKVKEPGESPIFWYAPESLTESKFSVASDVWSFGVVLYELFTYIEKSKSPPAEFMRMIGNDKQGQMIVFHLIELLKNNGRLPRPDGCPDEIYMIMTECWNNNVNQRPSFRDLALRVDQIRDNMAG

[3] = target: 3-phosphoinositide-dependent protein kinase 1 (Homo sapiens) (UniProt O15530); test: Inhibition of PDK1 (unknown origin) assessed as residual enzyme activity at 1 uM relative to untreated control
Sequence of 3-phosphoinositide-dependent protein kinase 1 (Homo sapiens) (O15530 whole entry): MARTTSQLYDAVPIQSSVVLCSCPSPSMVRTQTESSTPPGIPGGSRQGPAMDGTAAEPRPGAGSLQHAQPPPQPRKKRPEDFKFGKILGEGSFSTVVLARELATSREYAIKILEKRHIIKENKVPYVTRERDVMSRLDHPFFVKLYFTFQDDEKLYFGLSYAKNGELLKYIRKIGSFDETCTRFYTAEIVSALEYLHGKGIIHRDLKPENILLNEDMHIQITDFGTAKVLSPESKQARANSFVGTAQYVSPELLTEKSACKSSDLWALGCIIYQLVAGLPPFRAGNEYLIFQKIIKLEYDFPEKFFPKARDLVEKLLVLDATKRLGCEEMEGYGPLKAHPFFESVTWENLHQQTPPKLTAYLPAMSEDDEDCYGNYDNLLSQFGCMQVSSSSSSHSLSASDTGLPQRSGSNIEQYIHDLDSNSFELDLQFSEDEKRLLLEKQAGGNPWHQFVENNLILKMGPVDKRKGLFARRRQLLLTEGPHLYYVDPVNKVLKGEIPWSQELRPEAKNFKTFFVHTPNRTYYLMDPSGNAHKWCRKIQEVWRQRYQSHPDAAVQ

Measured: Activity

Sequence of Serine/threonine-protein kinase pim-1 (Homo sapiens) (P11309 whole entry, looked up): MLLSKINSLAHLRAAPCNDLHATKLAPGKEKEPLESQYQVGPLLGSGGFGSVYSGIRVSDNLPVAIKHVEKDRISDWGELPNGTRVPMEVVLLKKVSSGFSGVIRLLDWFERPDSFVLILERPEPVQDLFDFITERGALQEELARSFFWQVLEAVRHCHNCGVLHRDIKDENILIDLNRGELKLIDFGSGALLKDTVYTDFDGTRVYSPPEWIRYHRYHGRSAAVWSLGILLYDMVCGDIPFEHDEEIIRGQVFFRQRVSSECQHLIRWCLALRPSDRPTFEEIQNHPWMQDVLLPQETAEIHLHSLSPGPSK

Cc1cccc(-c2nn3c(c2-c2ccc(O)cc2)C(C)C(C)(C)C3)n1 (stereo not drawn)
> 80%: [1] | [2] | [3]
